ChEMBL document CHEMBL5678818, “Discovery of potent SOS1 inhibitors that block RAS activation via disruption of the RAS-SOS1 interaction” (Proc Natl Acad Sci U S A, 2019)

Experiments:
[1] = molecular target: Ribosomal protein S6 kinase alpha-4 (Homo sapiens) (UniProt O75676); experiment: Inhibition of C-terminal RPS6KA4 […] domain 2 (unknown origin) assessed as residual activity at 1000 nM by KINOMEscan analysis relative to control
[2] = molecular target: Death-associated protein kinase 3 (Homo sapiens) (UniProt O43293); experiment: Inhibition of DAPK3 (unknown origin) assessed as residual activity at 1000 nM by KINOMEscan analysis relative to control
[3] = molecular target: Insulin-like growth factor 1 receptor (Homo sapiens) (UniProt P08069); experiment: Inhibition of IGF1R (unknown origin) assessed as residual activity at 1000 nM by KINOMEscan analysis relative to control
[4] = molecular target: T1, Cyclin-dependent kinase 11A (Homo sapiens) (UniProt Q9UQ88); experiment: Inhibition of CDC2L2 (unknown origin) assessed as residual activity at 1000 nM by KINOMEscan analysis relative to control
T1 sequence (whole entry): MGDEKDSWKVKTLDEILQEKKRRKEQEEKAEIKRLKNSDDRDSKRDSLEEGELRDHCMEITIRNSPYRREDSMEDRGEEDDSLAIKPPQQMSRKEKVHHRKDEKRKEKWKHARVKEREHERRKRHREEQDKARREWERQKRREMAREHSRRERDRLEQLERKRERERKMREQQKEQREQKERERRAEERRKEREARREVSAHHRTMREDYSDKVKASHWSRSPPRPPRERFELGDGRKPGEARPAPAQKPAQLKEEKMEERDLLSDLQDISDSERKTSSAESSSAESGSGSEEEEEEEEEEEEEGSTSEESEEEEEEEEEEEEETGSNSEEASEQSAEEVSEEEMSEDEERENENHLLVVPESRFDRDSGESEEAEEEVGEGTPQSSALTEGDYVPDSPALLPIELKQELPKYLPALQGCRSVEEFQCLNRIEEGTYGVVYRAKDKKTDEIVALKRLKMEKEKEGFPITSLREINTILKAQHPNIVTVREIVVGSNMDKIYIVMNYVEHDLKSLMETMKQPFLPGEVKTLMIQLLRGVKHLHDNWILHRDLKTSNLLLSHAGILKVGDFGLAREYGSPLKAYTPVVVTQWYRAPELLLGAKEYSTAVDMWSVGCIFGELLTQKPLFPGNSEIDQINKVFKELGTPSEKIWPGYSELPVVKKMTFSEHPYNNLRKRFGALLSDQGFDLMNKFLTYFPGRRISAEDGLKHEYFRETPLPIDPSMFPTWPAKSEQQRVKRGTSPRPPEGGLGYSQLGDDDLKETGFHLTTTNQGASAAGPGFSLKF

[5] = molecular target: Macrophage colony-stimulating factor 1 receptor (Homo sapiens) (UniProt P07333); experiment: Inhibition of CSF1R (unknown origin) assessed as residual activity at 1000 nM by KINOMEscan analysis relative to control
[6] = test system: Leucine-rich repeat serine/threonine-protein kinase 2 (Homo sapiens), Q5S007 [G2019S]; experiment: Inhibition of LRRK2 G2019S mutant (unknown origin) assessed as residual activity at 1000 nM by KINOMEscan analysis relative to control
[7] = molecular target: Activin receptor type-2A (Homo sapiens) (UniProt P27037); experiment: Inhibition of ACVR2A (unknown origin) assessed as residual activity at 1000 nM by KINOMEscan analysis relative to control
[8] = molecular target: T2, Serine/threonine-protein kinase TNNI3K (Homo sapiens) (UniProt Q59H18); experiment: Inhibition of TNNI3K (unknown origin) assessed as residual activity at 1000 nM by KINOMEscan analysis relative to control
T2 sequence (whole entry): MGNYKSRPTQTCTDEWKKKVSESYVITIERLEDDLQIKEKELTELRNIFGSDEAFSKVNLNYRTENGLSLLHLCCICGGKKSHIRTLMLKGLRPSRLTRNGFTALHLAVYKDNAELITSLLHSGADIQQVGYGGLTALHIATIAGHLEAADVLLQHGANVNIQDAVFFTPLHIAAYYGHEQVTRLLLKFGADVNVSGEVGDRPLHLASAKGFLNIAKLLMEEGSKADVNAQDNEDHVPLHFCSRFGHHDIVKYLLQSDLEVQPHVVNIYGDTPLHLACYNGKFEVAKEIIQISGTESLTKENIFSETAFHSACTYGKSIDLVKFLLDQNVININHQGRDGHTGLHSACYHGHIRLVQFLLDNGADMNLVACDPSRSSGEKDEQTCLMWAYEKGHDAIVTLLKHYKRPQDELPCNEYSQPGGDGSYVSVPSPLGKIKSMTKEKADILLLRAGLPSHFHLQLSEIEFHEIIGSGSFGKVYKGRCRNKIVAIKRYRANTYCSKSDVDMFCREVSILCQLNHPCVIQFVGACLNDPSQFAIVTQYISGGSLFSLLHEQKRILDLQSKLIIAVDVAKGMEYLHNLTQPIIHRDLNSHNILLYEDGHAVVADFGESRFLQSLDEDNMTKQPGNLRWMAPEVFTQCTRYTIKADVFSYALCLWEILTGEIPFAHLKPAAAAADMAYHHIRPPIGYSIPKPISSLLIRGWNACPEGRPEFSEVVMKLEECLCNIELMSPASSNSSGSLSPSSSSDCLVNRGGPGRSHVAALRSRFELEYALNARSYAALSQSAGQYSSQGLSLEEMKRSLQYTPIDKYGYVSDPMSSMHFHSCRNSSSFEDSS

[9] = molecular target: Death-associated protein kinase 2 (Homo sapiens) (UniProt Q9UIK4); experiment: Inhibition of DAPK2 (unknown origin) assessed as residual activity at 1000 nM by KINOMEscan analysis relative to control
[10] = test system: Epidermal growth factor receptor (Homo sapiens), P00533 [L858R,T790M]; experiment: Inhibition of EGFR L858R/T790M mutant (unknown origin) assessed as residual activity at 1000 nM by KINOMEscan analysis relative to control

Sequence of Activin receptor type-2A (Homo sapiens) (P27037 whole entry): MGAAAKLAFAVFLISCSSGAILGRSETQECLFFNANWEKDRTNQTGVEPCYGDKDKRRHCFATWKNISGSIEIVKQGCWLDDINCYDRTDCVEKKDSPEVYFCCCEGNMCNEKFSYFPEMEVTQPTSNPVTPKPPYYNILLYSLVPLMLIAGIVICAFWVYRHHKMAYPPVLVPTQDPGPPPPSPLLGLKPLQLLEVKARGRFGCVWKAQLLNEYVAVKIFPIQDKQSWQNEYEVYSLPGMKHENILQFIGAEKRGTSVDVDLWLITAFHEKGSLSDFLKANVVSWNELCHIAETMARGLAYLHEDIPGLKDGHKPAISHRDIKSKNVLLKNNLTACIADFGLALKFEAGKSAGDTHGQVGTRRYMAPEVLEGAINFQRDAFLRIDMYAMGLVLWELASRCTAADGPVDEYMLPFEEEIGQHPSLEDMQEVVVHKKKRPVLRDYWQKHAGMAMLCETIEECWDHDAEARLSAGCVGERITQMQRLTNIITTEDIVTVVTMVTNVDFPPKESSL
Sequence of Leucine-rich repeat serine/threonine-protein kinase 2 (Homo sapiens), Q5S007 [G2019S] (Q5S007 whole entry G2019S): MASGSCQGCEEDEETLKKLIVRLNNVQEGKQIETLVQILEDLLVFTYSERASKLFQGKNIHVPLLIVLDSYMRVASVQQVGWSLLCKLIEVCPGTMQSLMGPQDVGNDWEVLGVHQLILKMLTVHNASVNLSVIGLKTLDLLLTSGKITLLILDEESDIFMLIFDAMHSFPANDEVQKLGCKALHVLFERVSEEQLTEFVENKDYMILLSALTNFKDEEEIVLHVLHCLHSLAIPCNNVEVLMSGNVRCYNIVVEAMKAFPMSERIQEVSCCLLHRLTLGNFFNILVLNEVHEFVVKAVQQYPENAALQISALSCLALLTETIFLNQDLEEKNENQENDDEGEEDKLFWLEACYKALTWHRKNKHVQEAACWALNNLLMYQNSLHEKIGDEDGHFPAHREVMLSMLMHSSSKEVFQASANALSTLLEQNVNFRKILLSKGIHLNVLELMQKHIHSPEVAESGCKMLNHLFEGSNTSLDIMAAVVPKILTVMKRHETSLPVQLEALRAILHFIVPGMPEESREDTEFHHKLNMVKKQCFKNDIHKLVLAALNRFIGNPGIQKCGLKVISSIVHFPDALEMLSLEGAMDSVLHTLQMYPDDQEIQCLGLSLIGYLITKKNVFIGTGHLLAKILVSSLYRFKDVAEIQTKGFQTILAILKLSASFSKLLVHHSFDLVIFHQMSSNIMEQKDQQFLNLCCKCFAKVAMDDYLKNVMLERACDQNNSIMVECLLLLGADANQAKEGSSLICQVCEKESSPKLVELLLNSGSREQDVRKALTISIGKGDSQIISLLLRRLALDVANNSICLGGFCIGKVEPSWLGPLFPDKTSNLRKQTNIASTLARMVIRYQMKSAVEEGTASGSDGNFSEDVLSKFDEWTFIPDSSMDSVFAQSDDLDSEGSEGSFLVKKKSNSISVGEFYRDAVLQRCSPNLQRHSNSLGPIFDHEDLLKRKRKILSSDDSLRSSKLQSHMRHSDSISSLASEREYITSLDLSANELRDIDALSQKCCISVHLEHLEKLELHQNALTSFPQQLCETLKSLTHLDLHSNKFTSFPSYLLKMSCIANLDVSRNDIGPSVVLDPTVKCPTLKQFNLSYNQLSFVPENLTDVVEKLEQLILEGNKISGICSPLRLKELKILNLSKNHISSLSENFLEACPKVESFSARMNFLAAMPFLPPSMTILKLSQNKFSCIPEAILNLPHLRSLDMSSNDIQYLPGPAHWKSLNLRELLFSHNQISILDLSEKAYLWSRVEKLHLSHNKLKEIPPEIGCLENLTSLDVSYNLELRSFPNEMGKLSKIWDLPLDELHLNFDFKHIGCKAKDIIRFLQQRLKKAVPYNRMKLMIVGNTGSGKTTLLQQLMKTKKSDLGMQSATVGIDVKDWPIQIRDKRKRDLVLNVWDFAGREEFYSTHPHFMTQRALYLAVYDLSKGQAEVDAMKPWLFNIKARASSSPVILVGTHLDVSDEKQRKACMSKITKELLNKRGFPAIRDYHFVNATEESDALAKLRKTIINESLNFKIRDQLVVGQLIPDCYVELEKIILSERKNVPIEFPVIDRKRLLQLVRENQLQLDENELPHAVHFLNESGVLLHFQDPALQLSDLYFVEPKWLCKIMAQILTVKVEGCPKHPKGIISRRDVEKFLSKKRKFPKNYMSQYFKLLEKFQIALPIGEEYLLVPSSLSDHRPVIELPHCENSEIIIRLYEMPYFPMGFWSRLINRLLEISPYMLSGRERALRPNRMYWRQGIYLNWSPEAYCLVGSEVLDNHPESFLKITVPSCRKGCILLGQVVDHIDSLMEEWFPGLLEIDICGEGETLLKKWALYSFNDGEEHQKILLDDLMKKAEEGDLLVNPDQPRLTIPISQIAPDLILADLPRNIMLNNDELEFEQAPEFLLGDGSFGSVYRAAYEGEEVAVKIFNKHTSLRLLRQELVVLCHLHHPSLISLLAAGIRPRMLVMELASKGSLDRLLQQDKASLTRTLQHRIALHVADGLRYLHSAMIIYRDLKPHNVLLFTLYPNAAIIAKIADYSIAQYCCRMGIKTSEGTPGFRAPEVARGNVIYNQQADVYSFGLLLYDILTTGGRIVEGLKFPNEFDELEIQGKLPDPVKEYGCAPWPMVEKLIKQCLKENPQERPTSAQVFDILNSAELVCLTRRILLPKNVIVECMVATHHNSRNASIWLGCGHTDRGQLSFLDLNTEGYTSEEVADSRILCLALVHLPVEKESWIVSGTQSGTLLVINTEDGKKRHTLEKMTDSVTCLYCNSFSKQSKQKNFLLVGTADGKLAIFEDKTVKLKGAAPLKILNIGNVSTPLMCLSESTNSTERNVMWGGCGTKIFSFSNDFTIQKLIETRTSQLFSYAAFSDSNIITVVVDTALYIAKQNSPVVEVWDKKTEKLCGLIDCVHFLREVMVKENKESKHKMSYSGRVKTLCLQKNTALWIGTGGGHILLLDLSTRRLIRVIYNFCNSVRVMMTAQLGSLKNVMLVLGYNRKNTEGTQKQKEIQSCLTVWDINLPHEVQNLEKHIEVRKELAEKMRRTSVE
Sequence of Death-associated protein kinase 2 (Homo sapiens) (Q9UIK4 whole entry, looked up): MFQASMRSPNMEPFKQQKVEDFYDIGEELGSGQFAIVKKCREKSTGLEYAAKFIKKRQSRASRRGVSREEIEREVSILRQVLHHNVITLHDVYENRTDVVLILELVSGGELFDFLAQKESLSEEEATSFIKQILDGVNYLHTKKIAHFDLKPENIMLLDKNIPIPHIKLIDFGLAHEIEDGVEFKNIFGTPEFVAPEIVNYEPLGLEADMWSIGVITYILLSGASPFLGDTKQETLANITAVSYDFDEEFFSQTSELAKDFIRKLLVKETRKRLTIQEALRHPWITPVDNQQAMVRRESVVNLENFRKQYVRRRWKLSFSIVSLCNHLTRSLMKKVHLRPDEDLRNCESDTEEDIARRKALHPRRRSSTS
Sequence of Ribosomal protein S6 kinase alpha-4 (Homo sapiens) (O75676 whole entry, looked up): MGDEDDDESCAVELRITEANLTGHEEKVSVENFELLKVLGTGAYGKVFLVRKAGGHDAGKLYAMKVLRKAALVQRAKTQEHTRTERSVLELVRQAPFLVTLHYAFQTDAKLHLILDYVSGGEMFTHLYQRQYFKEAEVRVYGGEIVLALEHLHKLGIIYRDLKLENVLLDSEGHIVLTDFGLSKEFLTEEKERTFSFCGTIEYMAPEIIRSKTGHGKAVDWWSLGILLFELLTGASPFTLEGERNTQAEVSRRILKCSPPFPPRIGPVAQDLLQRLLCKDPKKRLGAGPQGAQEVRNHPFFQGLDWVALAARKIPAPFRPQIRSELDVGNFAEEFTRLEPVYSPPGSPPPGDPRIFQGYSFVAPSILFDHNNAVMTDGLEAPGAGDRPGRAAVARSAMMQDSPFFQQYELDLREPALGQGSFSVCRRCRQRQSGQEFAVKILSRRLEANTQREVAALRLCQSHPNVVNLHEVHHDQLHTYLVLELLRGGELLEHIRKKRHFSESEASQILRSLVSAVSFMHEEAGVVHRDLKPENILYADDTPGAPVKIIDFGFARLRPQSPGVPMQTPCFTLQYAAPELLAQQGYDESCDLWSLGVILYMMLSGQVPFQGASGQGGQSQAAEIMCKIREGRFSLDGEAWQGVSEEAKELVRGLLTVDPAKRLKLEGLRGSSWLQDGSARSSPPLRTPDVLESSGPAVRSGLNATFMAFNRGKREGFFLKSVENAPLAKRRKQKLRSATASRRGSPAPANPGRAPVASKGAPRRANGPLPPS
Sequence of Death-associated protein kinase 3 (Homo sapiens) (O43293 whole entry, looked up): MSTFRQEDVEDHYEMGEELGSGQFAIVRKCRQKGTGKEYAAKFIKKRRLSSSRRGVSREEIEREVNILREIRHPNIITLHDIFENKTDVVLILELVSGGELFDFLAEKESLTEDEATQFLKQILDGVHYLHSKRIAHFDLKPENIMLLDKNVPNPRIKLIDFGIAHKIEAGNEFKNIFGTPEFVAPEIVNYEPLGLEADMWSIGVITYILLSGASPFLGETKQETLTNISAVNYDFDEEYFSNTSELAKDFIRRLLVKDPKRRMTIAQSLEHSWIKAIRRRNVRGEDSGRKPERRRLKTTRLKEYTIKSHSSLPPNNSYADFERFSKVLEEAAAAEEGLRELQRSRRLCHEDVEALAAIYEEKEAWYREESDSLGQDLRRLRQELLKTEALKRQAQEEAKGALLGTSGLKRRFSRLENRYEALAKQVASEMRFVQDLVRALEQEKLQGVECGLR

Row | Structure (SMILES) | Activity [1] [%] | Activity [2] [%] | Activity [3] [%] | Activity [4] [%] | Activity [5] [%] | Activity [6] [%] | Activity [7] [%] | Activity [8] [%] | Activity [9] [%] | Activity [10] [%]
1 | COc1cc2nc(C)nc(N[C@H](C)c3cccc(-c4cn[nH]c4)c3)c2cc1OC | 100 | 76 | 100 | 100 | 94 | 91 | 90 | 96 | 73 | 92
2 | COc1cc2ncnc(N[C@H](C)c3cccc4ccccc34)c2cc1OC | 82 | 100 | 100 | 99 | 76 | 95 | 100 | 100 | 99 | 74
